In ChEMBL document CHEMBL1138055, “Tetraoxane antimalarials and their reaction with Fe(II)” (J Med Chem, 2006):
Several values for one entry are separate records, joined by “and”; a condition that tells them apart may be missing. Equal values may be shown once.

Key:
[1] = system: 786-0; assay: Antiproliferative activity against human 786-0 cell line after 48 hrs; format: functional; conditions: 786-0, 48 h
[2] = system: Plasmodium falciparum
Description: (§1) Antimalarial activity against Plasmodium falciparum D6

[3] = Half life in mouse liver microsomes; format: ADME, Microsome
[4] = system: Liver microsomes; assay: Intrinsic clearance in human liver microsomes; format: ADME, Microsome
[5] = system: LOX IMVI; assay: Antiproliferative activity against human LOX IMVI cell line after 48 hrs; format: functional; conditions: for CC50: read-out: LC50 (the source's name)
[6] = Half life in human liver microsomes; format: ADME, Microsome
[7] = system: Plasmodium falciparum; remark: listed apart in the source
Description: (§2) Antimalarial activity against Plasmodium falciparum TM91C235

[8] = system: Plasmodium falciparum; remark: listed apart in the source
Description: (§3) Antimalarial activity against Plasmodium falciparum W2

[9] = species on record: Mus musculus; assay: Intrinsic clearance in mouse liver microsomes; format: ADME, Microsome
[10] = system: SF-539; assay: Antiproliferative activity against human SF539 cell line after 48 hrs; format: functional; conditions: SF-539, 48 h
[11] = system: SK-MEL-28; assay: Antiproliferative activity against human SK-MEL28 cell line after 48 hrs; format: functional; conditions: SK-MEL-28, 48 h
[12] = system: IGROV-1; assay: Antiproliferative activity against human IGROV1 cell line after 48 hrs; format: functional; conditions: for CC50: read-out: LC50 (the source's name)
[13] = system: Mus musculus; assay: Effect on survival of CD1 mice (Mus musculus) infected with Plasmodium berghei KBG173 at 200 mg/kg/day, perorally; format: functional; conditions: route oral
[14] = system: EKVX; assay: Antiproliferative activity against human EKVX cell line after 48 hrs; format: functional
[15] = system: ACHN; assay: Antiproliferative activity against human ACHN cell line after 48 hrs; format: functional
[16] = system: UO-31; assay: Antiproliferative activity against human UO31 cell line after 48 hrs; format: functional; conditions: for CC50: read-out: LC50 (the source's name)
[17] = system: Mus musculus; assay: Effect on survival of CD1 mice (Mus musculus) infected with Plasmodium berghei KBG173 at 600 mg/kg/day, perorally; format: functional, organism-based; design: route oral; conditions: route oral
[18] = system: U-251; assay: Antiproliferative activity against human U251 cell line after 48 hrs; format: functional; conditions: U-251, 48 h
[19] = system: Mus musculus; assay: Effect on survival of CD1 mice (Mus musculus) infected with Plasmodium berghei KBG173 at 50 mg/kg/day, perorally; format: functional; conditions: route oral
[20] = system: HOP-62; assay: Antiproliferative activity against human HOP62 cell line after 48 hrs; format: functional; conditions: for CC50: read-out: LC50 (the source's name)
[21] = system: COLO 205; assay: Antiproliferative activity against human COLO 205 cell line after 48 hrs; format: functional; conditions: for CC50: read-out: LC50 (the source's name)
[22] = system: SR; assay: Antiproliferative activity against human SR cell line after 48 hrs; format: functional
[23] = system: PC-3; assay: Antiproliferative activity against human PC3 cell line after 48 hrs; format: functional; conditions: PC-3, 48 h
[24] = system: UACC-62; assay: Antiproliferative activity against human UACC62 cell line after 48 hrs; format: functional; conditions: UACC-62, 48 h
[25] = system: DU-145; assay: Antiproliferative activity against human DU145 cell line after 48 hrs; format: functional; conditions: DU-145, 48 h
[26] = system: SNB-75; assay: Antiproliferative activity against human SNB75 cell line after 48 hrs; format: functional; conditions: SNB-75, 48 h
[27] = system: HCT-15; assay: Antiproliferative activity against human HCT15 cell line after 48 hrs; format: functional; conditions: HCT-15, 48 h
[28] = system: SK-MEL-2; assay: Antiproliferative activity against human SK-MEL2 cell line after 48 hrs; format: functional; conditions: SK-MEL-2, 48 h
[29] = system: Mus musculus; assay: Effect on survival of CD1 mice (Mus musculus) infected with Plasmodium berghei KBG173 at 2 mg/kg/day, perorally; format: functional; conditions: route oral
[30] = system: Plasmodium falciparum; assay: microbe, parasite or virus in culture; conditions: TM91C235
Description: as §2

[31] = system: Mus musculus; assay: Effect on survival of CD1 mice (Mus musculus) infected with Plasmodium berghei KBG173 at 4 mg/kg/day, peroral; format: functional; conditions: route oral
[32] = system: Plasmodium falciparum; assay: microbe, parasite or virus in culture; conditions: D6
Description: as §1

[33] = system: Plasmodium falciparum; assay: microbe, parasite or virus in culture; conditions: W2
Description: as §3

[34] = read-out: LC50 (the source's name)

CC(=O)O[C@H]1C[C@H]2[C@@H]([C@H](OC(C)=O)C[C@@H]3CC4(CC[C@@]32C)OOC2(CCC(C(N)=O)CC2)OO4)[C@@H]2CC[C@H]([C@H](C)CCC(N)=O)[C@@]12C (stereo in doubt; 7)
GI50 [1]: 1.69 µM | LC50 [1]: 8.08 µM | TGI [1]: 3.7 µM | IC50 [2]: 0.011 µM | IC90 [2]: 0.0173 µM | half-life [3]: 38 min | CL [4]: 3.4 mL/min/g | GI50 [5]: 1.85 µM | TGI [5]: 3.95 µM | CC50 [5]: 8.42 µM | half-life [6]: 21 min | IC50 [7]: 0.0118 µM | IC90 [7]: 0.0567 µM | IC50 [8]: 0.0171 µM | IC90 [8]: 0.0344 µM | CL [9]: 1.59 mL/min/g

CC(=O)O[C@H]1C[C@H]2[C@@H]([C@H](OC(C)=O)C[C@@H]3CC4(CC[C@@]32C)OOC2(CCC(C(=O)NCCN(C)C)CC2)OO4)[C@@H]2CC[C@H]([C@H](C)CCC(=O)NCCN(C)C)[C@@]12C (stereo in doubt; 11)
GI50 [10]: 1.47 µM | TGI [10]: 2.99 µM | CC50 [10, 34]: 9.93 µM | IC50 [2]: 0.0756 µM | IC90 [2]: 0.0941 µM | half-life [3]: > 120 min | CL [4]: < 0.6 mL/min/g | GI50 [5]: 1.18 µM | TGI [5]: 2.82 µM | CC50 [5]: 19.9 µM | half-life [6]: > 120 min | IC50 [7]: 0.0814 µM | IC90 [7]: 0.11 µM | GI50 [11]: 1.92 µM | TGI [11]: 11.3 µM | CC50 [11, 34]: 37 µM | IC50 [8]: 0.113 µM | IC90 [8]: 0.126 µM | CL [9]: < 0.6 mL/min/g | GI50 ([12]; Homo sapiens, IGROV-1, 48 h): 0.9 µM | TGI ([12]; Homo sapiens, IGROV-1, 48 h): 2.62 µM | CC50 ([12]; Homo sapiens, IGROV-1, 48 h): 13.4 µM

CC(=O)O[C@H]1C[C@H]2[C@@H]([C@H](OC(C)=O)C[C@@H]3CC4(CC[C@@]32C)OOC2(CCC(C)CC2)OO4)[C@@H]2CC[C@H]([C@H](C)CCC(N)=O)[C@@]12C (stereo in doubt; 15)
Activity [13]: 27.2 days | GI50 [14]: 1.01 µM | LC50 [14]: 5.49 µM | TGI [14]: 2.35 µM | LC50 [15]: 1.8 µM and 8.35 µM | TGI [15]: 3.88 µM | TGI [16]: 3.08 µM | CC50 [16]: 6.11 µM | Activity [17]: 29.2 days | GI50 [18]: 1.78 µM | TGI [18]: 3.78 µM | CC50 [18, 34]: 8.06 µM | Activity [19]: 21.4 days | GI50 [12]: 1.54 µM | TGI [12]: 3.07 µM | CC50 [12]: 6.14 µM | GI50 [20]: 1.47 µM | TGI [20]: 2.96 µM | CC50 [20]: 5.96 µM | TGI [21]: 3.19 µM | CC50 [21]: 6.52 µM

CC(=O)O[C@H]1C[C@H]2[C@@H]([C@H](OC(C)=O)C[C@@H]3CC4(CC[C@@]32C)OOC2(CCC(C)CC2)OO4)[C@@H]2CC[C@H]([C@H](C)CCC(=O)O)[C@@]12C (stereo in doubt; 16)
Activity [13]: 24.8 days | IC50 [2]: 0.00153 µM | Activity [17]: 29 days | IC50 [8]: 0.00098 µM | Activity [19]: 12.2 days | GI50 [22]: 1.63 µM | TGI [22]: 3.82 µM | CC50 [22, 34]: 8.92 µM

CC(=O)O[C@H]1C[C@H]2[C@@H]([C@H](OC(C)=O)C[C@@H]3CC4(CC[C@@]32C)OOC2(CCC(C)CC2)OO4)[C@@H]2CC[C@H]([C@H](C)CCC(N)=O)[C@@]12C (stereo in doubt; 17)
GI50 [23]: 1.97 µM | TGI [23]: 4.29 µM | CC50 [23, 34]: 9.31 µM | Activity [13]: 21.8 days | GI50 ([14]; Homo sapiens, EKVX, 48 h): 1.43 µM | LC50 ([14]; Homo sapiens, EKVX, 48 h): 5.41 µM | TGI ([14]; Homo sapiens, EKVX, 48 h): 2.78 µM | LC50 [15]: 5.73 µM | GI50 ([15]; Homo sapiens, ACHN, 48 h): 1.5 µM | TGI ([15]; Homo sapiens, ACHN, 48 h): 2.93 µM | IC50 [2]: 0.02 µM | GI50 [24]: 1.85 µM | TGI [24]: 3.99 µM | CC50 [24, 34]: 8.59 µM | GI50 [25]: 1.82 µM | TGI [25]: 3.26 µM | CC50 [25, 34]: 5.85 µM | GI50 ([16]; Homo sapiens, UO-31, 48 h): 1.26 µM | TGI ([16]; Homo sapiens, UO-31, 48 h): 2.64 µM | CC50 ([16]; Homo sapiens, UO-31, 48 h): 5.5 µM | Activity [17]: 30 days | IC50 [8]: 0.0141 µM | Activity [19]: 21.2 days | GI50 [26]: 1.98 µM | TGI [26]: 4.05 µM | CC50 [26, 34]: 8.28 µM | GI50 [12]: 0.49 µM | TGI ([12]; Homo sapiens, IGROV-1, 48 h): 1.84 µM | CC50 ([12]; Homo sapiens, IGROV-1, 48 h): 4.95 µM | GI50 ([20]; Homo sapiens, HOP-62, 48 h): 1.07 µM | TGI ([20]; Homo sapiens, HOP-62, 48 h): 2.31 µM | CC50 ([20]; Homo sapiens, HOP-62, 48 h): 4.98 µM | GI50 [27]: 1.71 µM | TGI [27]: 3.43 µM | CC50 [27, 34]: 6.86 µM | GI50 [28]: 1.71 µM | TGI [28]: 3.2 µM | CC50 [28, 34]: 6.01 µM | GI50 ([21]; Homo sapiens, COLO 205, 48 h): 1.69 µM | TGI ([21]; Homo sapiens, COLO 205, 48 h): 3.12 µM | CC50 ([21]; Homo sapiens, COLO 205, 48 h): 5.76 µM

CCN(CC)CCCC(C)Nc1ccnc2cc(Cl)ccc12 (stereo not drawn) [CHLOROQUINE]
Activity [29]: 12.8 days | IC90 [30]: 0.269 µM | Activity [31]: 25.6 days | IC90 [32]: 0.0176 µM | IC90 [33]: 0.491 µM
